Laboratory results reported in article PMC5515969, “Effects of 31 FDA approved small-molecule kinase inhibitors on isolated rat liver mitochondria” (Archives of Toxicology, 2016).

Columns and labels:
[1] = test system: isolated rat liver mitochondria; experiment: Mitochondrial oxygen consumption (glutamate/malate or succinate driven, state 4 and state 3); format: biochemical; details: DMSO treated samples set as 1; for State 3 respiration driven by succinate at 10XCmax: key: 0 indicates that the drug had no effects (negative); for State 3 respiration driven by succinate at 1XCmax: key: 0 indicates that the drug had no effects (negative)
Procedure, shortened: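 Oxygen uptake on glutamate/malate or on succinate defined state 4; ADP added 3 min later gave state 3. Mitochondria isolated from rat liver by differential centrifugation, adjusted to 1 mg/ml and pretreated 5 min with inhibitor (0.1% DMSO final). Values relative to DMSO control, set to 1.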

RCC I = RCC I activity in submitochondrial particles; format: biochemical, rat; parameters: key to RCC I at 10XCmax / RCC I at 100XCmax / RCC I at 50XCmax / RCC I at 30XCmax / RCC I at 20XCmax: activity relative to DMSO-treated controls (control set as 1 = 100%)
Procedure, shortened: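 Kinase inhibitors were preincubated 15 min with submitochondrial particles (1 mg/ml) before complex activities were measured. RCC I was the rotenone-sensitive portion (activity without minus with rotenone). RCC I/V was read at 340 nm and RCC II at 600 nm every 1 min for 6 min. RCC III and IV were read at 550 nm every 10 s for 2 min. Activities are normalized to DMSO controls set as 1.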

RCC II = target: T1, RCC II (Rattus norvegicus, UniProt P21913+Q641Z9+Q6PCT8+Q920L2); experiment: RCC II activity in submitochondrial particles; format: biochemical; parameters: key: activity relative to DMSO-treated controls (control set as 1 = 100%); details: relative to DMSO treated samples
T1 construct: Submitochondrial particles were prepared by subjecting the intact mitochondria to three successive freeze–thaw cycles; from tissue; host or cells: rat liver mitochondria, used as submitochondrial particles
T1 sequence (Q920L2 35-656): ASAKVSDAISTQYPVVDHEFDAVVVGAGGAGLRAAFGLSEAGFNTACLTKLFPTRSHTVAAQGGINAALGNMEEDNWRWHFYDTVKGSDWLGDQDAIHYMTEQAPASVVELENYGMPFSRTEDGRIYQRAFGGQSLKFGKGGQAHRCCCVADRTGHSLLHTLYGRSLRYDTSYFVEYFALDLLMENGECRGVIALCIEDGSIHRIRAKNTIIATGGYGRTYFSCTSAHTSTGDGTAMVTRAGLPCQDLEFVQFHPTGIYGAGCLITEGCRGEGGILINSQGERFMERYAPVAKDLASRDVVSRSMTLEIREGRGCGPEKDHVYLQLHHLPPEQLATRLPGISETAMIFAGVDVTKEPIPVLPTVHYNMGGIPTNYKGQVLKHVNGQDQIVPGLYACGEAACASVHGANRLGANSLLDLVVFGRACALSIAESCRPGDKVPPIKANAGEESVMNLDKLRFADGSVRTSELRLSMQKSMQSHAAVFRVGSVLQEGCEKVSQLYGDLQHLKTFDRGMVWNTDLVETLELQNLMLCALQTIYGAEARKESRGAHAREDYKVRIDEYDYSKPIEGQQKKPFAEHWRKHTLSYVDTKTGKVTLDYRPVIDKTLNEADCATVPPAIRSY
T1 sequence (P21913 31-282): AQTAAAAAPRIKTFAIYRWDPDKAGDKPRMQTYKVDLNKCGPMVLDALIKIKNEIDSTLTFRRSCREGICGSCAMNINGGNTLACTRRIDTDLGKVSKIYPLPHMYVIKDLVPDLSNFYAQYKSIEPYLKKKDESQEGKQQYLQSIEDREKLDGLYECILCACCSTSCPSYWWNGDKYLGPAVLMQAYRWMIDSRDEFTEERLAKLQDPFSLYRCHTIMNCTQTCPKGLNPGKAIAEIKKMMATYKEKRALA
T1 sequence (Q641Z9 1-169): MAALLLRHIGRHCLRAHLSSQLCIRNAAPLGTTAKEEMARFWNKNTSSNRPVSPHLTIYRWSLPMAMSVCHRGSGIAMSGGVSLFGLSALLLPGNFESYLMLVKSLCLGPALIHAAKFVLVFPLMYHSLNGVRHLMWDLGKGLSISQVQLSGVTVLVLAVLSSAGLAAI
T1 sequence (Q6PCT8 57-159): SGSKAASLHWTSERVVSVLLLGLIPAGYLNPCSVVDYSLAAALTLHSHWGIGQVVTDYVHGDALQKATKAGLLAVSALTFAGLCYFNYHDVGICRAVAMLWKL
Procedure, shortened: (§1)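 Absorbance kinetics: A340 (RCC I, V) and A600 (RCC II) read each minute over 6 min, A550 (RCC III, IV) every 10 s over 2 min; RCC I taken as […]. Particles (1 mg/ml) pretreated 15 min with compound; DMSO-treated activity = 1.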

RCC III = RCC III activity in submitochondrial particles; format: biochemical, rat; parameters: key to RCC III at 100XCmax: activity relative to DMSO-treated controls (control set as 1 = 100%)
Procedure, shortened: as §1

RCC IV = RCC IV activity in submitochondrial particles; format: biochemical, rat; parameters: key to RCC IV at 50XCmax / RCC IV at 100XCmax: activity relative to DMSO-treated controls (control set as 1 = 100%)
Procedure, shortened: as §1

[2] = test system: isolated rat liver mitochondria; experiment: Mitochondrial inner membrane potential (MMP), Rhodamine 123; format: biochemical; details: difference in signal between KI and DMSO treated samples at the end of experiments
Description: Fig. 3 KI effects on mitochondrial inner membrane potential (MMP). […] In a, c, data are means and standard derivations from three separate experiments. *p < 0.05 as compared to DMSO-treated samples at the end of experiments. In b, data are means of two independent experiments

[3] = test system: isolated rat liver mitochondria; details: positive control alamethicin treated samples
[4] = therapeutic maximal blood concentration; ref product labeling; cited from earlier work
[5] = test system: isolated rat liver mitochondria; experiment: Mitochondrial ROS production (CM-H2DCFDA); details: DMSO treated samples set as 1
[6] = 100-fold Cmax, 15 min, DMSO-treated = 100
[7] = 100XCmax, relative to DMSO treated samples

SMILES: COc1cc(Nc2c(C#N)cnc3cc(OCCCN4CCN(C)CC4)c(OC)cc23)c(Cl)cc1Cl [Bosutinib]
- State 3 respiration driven by glutamate/malate at 1XCmax ([1]; 1XCmax): 0
- State 3 respiration driven by succinate at 1XCmax ([1]; 1XCmax): 0
- State 4 respiration driven by glutamate/malate at 1XCmax ([1]; 1XCmax): 0
- State 4 respiration driven by succinate at 1XCmax ([1]; 1XCmax): 0
- State 3 respiration driven by glutamate/malate at 2.5XCmax ([1]; 2.5XCmax): 0
- State 3 respiration driven by succinate at 2.5XCmax ([1]; 2.5XCmax): 0
- State 4 respiration driven by glutamate/malate at 2.5XCmax ([1]; 2.5XCmax): 0
- State 4 respiration driven by succinate at 2.5XCmax ([1]; 2.5XCmax): 0
- State 3 respiration driven by glutamate/malate at 5XCmax ([1]; 5XCmax): 0
- State 3 respiration driven by succinate at 5XCmax ([1]; 5XCmax): 0
- State 4 respiration driven by glutamate/malate at 5XCmax ([1]; 5XCmax): 0
- State 4 respiration driven by succinate at 5XCmax ([1]; 5XCmax): 0
- State 3 respiration driven by glutamate/malate at 10XCmax ([1]; 10XCmax): 0
- State 3 respiration driven by succinate at 10XCmax ([1]; 10XCmax): 0
- State 4 respiration driven by glutamate/malate at 10XCmax ([1]; 10XCmax): 0
- State 4 respiration driven by succinate at 10XCmax ([1]; 10XCmax): 0
- State 3 respiration driven by glutamate/malate at 20XCmax ([1]; 20XCmax): 0
- State 3 respiration driven by succinate at 20XCmax ([1]; 20XCmax): 0
- State 4 respiration driven by glutamate/malate at 20XCmax ([1]; 20XCmax): 0
- State 4 respiration driven by succinate at 20XCmax ([1]; 20XCmax): 0
- State 3 respiration driven by glutamate/malate at 30XCmax ([1]; 30XCmax): 0
- State 3 respiration driven by succinate at 30XCmax ([1]; 30XCmax): 0
- State 4 respiration driven by glutamate/malate at 30XCmax ([1]; 30XCmax): 0
- State 4 respiration driven by succinate at 30XCmax ([1]; 30XCmax): 0
- State 3 respiration driven by glutamate/malate at 50XCmax ([1]; 50XCmax): 0
- State 3 respiration driven by succinate at 50XCmax ([1]; 50XCmax): 0
- State 4 respiration driven by glutamate/malate at 50XCmax ([1]; 50XCmax): 0
- State 4 respiration driven by succinate at 50XCmax ([1]; 50XCmax): 0
- State 3 respiration driven by glutamate/malate at 100XCmax ([1]; 100XCmax): 0
- State 3 respiration driven by succinate at 100XCmax ([1]; 100XCmax): 0
- State 4 respiration driven by glutamate/malate at 100XCmax ([1]; 100XCmax): 0
- State 4 respiration driven by succinate at 100XCmax ([1]; 100XCmax): 0
- RCC I at 10XCmax (RCC I; 10XCmax, relative to DMSO treated samples): 0
- RCC activity I (RCC I; [6]): 88.03 ± 3.01 % of control
- RCC I at 100XCmax (RCC I; [7]): 88.03±3.01
- RCC II at 1.0XCmax (RCC II; 1.0XCmax): 0
- RCC II at 2.5XCmax (RCC II; 2.5XCmax): 0
- RCC II at 5XCmax (RCC II; 5XCmax): 0
- RCC II at 10XCmax (RCC II; 10XCmax): 0
- RCC II at 20XCmax (RCC II; 20XCmax): 0
- RCC II at 30XCmax (RCC II; 30XCmax): 0
- RCC II at 50XCmax (RCC II; 50XCmax): 0
- RCC II at 100XCmax (RCC II; 100XCmax): 0
- RCC activity III (RCC III; [6]): 101.81 ± 4.43 % of control
- RCC III at 100XCmax (RCC III; [7]): 0
- RCC IV at 50XCmax (RCC IV; 50XCmax, relative to DMSO treated samples, in %): 0
- RCC activity IV (RCC IV; [6]): 101.25 ± 2.26 % of control
- MMP measured by Rhodamine 123 at 1XCmax ([2]; 1XCmax): 0
- MMP measured by Rhodamine 123 at 2.5XCmax ([2]; 2.5XCmax): 0
- MMP measured by Rhodamine 123 at 5XCmax ([2]; 5XCmax): 0
- MMP measured by Rhodamine 123 at 10XCmax ([2]; 10XCmax): 0
- MMP measured by Rhodamine 123 at 20XCmax ([2]; 20XCmax): 0
- MMP measured by Rhodamine 123 at 30XCmax ([2]; 30XCmax): 0
- MMP measured by Rhodamine 123 at 50XCmax ([2]; 50XCmax): 0
- MMP measured by Rhodamine 123 at 100XCmax ([2]; 100XCmax): 0
- Cytochrome c release 1XCmax ([3]; 1XCmax): 0
- Cytochrome c release 2.5XCmax ([3]; 2.5XCmax): 0
- Cytochrome c release 5XCmax ([3]; 5XCmax): 0
- Cytochrome c release 10XCmax ([3]; 10XCmax): 0
- Cytochrome c release 20XCmax ([3]; 20XCmax): 0
- Cytochrome c release 30XCmax ([3]; 30XCmax): 0
- Cytochrome c release 50XCmax ([3]; 50XCmax): 0
- Cytochrome c release 100XCmax ([3]; 100XCmax): 0
- Cmax [4]: 200 ng/mL
- ROS measured by CM-H2DCFDA at 1XCmax ([5]; 1XCmax): 0
- ROS measured by CM-H2DCFDA at 2.5XCmax ([5]; 2.5XCmax): 0
- ROS measured by CM-H2DCFDA at 5XCmax ([5]; 5XCmax): 0
- ROS measured by CM-H2DCFDA at 10XCmax ([5]; 10XCmax): 0
- ROS measured by CM-H2DCFDA at 20XCmax ([5]; 20XCmax): 0
- ROS measured by CM-H2DCFDA at 30XCmax ([5]; 30XCmax): 0
- ROS measured by CM-H2DCFDA at 50XCmax ([5]; 50XCmax): 0
- ROS measured by CM-H2DCFDA at 100XCmax ([5]; 100XCmax): 0
